Test results taken from patent US10294227B2, “Compounds” (UNIVERSITY COURT OF THE UNIVERSITY OF EDINBURGH, priority 2015, dated 2019).
Where two headings read alike, the source gives them in different places.

Columns and labels:
[1] = tested on: MCF7 cells; assay: Cell viability assay (PrestoBlue); assay type: cell-based; conditions: Homo sapiens, MCF7, 120 h; cell viability at day 5; read-out: Antiproliferative activity (EC50) MCF7
[2] = tested on: MDA-MB-231 cells; assay: Cell viability assay (PrestoBlue); assay type: cell-based; conditions: Homo sapiens, MDA-MB-231, 120 h, read-out: Antiproliferative activity (EC50) MDA-MB-231; cell viability at day 5
[3] = tested on: SYF fibroblasts (deficient for Src, Yes, and Fyn); assay: Cell viability assay (PrestoBlue); assay type: cell-based, murine; conditions: Mus musculus, Fibroblast, 120 h; cell viability at day 5; read-out: Antiproliferative activity (EC50) SYF (−/− Src)
[4] = molecular target: mTOR (Homo sapiens (Human), UniProt P42345); assay: Kinase screening assay (IC50); assay type: biochemical; conditions: 10 μM ATP; read-out: Target inhibition (IC50) mTOR
[5] = molecular target: PDGFRa (Homo sapiens (Human), UniProt P16234); assay: Kinase screening assay (IC50); assay type: biochemical; conditions: 10 μM ATP; read-out: Target inhibition (IC50) PDGFRa
[6] = molecular target: KIT (Homo sapiens (Human), UniProt P10721); assay: Kinase screening assay (IC50); conditions: read-out: Target inhibition (IC50) KIT; 10 μM ATP
Sequence of KIT (P10721 26-976): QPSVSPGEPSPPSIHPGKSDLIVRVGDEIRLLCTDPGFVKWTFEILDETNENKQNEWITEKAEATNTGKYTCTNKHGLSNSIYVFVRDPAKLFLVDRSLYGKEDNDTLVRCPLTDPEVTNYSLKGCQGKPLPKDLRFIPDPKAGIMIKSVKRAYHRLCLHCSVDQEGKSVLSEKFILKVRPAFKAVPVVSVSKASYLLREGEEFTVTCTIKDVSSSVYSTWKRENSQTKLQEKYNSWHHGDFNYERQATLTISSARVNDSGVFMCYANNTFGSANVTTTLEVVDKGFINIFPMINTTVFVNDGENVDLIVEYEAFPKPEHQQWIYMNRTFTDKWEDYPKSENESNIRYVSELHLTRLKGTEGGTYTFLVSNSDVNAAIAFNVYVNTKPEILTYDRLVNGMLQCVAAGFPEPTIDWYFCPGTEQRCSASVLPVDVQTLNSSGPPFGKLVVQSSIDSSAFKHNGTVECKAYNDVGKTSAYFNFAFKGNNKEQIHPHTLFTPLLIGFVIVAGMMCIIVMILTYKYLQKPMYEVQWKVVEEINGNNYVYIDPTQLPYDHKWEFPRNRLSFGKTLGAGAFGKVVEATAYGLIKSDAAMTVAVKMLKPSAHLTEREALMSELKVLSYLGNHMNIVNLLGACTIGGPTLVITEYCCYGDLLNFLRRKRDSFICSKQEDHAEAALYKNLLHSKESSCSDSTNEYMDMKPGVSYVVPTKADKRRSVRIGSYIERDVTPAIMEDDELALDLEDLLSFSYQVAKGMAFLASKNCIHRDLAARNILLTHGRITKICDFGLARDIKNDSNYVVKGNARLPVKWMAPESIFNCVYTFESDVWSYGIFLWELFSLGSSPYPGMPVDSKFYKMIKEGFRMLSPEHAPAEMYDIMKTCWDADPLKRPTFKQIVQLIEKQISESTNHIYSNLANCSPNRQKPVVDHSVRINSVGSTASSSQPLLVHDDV

[7] = molecular target: RET (Homo sapiens (Human), UniProt P07949); assay: Kinase screening assay (IC50); conditions: read-out: Target inhibition (IC50) RET; 10 μM ATP
Sequence of RET (P07949 29-1114): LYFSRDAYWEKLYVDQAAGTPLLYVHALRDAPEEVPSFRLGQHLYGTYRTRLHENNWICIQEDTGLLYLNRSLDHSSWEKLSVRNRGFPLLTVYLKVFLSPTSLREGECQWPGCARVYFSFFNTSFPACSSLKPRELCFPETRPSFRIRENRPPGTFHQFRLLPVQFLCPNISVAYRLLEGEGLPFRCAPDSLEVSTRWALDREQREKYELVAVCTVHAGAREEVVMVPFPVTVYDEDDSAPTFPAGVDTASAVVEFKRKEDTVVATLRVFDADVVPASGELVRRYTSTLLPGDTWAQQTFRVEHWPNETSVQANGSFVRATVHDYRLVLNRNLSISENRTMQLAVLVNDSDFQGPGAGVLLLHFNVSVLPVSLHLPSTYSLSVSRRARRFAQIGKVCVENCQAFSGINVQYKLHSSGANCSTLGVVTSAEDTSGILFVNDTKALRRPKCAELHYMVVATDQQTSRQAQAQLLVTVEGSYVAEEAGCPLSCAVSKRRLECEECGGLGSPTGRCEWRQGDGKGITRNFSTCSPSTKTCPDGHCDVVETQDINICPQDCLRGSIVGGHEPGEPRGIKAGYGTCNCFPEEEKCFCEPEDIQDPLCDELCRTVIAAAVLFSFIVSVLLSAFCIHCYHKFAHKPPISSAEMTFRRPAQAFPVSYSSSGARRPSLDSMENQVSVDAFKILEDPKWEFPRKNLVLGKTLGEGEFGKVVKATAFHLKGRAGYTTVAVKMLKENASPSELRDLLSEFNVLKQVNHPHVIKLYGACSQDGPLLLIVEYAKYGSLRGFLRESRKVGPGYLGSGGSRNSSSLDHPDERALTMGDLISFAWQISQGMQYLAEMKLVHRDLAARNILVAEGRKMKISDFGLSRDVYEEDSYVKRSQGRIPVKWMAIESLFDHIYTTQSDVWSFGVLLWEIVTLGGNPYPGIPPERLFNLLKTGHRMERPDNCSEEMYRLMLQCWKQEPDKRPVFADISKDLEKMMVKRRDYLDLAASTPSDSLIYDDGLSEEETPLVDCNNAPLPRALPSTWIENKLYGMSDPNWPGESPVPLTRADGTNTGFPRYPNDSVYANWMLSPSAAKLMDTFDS

[8] = molecular target: BLK (Homo sapiens (Human), UniProt P51451); assay: Kinase screening assay (IC50); conditions: read-out: Target inhibition (IC50) BLK; 10 μM ATP
Sequence of BLK (P51451 whole entry): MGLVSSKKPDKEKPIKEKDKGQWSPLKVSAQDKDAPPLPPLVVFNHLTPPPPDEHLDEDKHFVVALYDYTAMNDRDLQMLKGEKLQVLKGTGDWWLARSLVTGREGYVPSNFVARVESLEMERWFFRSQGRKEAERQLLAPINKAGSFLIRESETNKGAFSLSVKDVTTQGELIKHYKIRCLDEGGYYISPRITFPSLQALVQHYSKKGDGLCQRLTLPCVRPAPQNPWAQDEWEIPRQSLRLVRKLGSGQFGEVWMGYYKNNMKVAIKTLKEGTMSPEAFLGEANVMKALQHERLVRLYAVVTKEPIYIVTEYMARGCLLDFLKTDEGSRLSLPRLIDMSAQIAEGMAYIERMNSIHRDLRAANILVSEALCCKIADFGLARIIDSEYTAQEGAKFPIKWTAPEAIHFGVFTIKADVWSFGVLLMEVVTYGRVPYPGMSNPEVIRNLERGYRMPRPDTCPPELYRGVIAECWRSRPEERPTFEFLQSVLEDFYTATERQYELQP

[9] = molecular target: FRK/PTK5 (Homo sapiens (Human), UniProt P42685); assay: Kinase screening assay (IC50); conditions: read-out: Target inhibition (IC50) FRK/PTK5; 10 μM ATP
Sequence of FRK/PTK5 (P42685 whole entry): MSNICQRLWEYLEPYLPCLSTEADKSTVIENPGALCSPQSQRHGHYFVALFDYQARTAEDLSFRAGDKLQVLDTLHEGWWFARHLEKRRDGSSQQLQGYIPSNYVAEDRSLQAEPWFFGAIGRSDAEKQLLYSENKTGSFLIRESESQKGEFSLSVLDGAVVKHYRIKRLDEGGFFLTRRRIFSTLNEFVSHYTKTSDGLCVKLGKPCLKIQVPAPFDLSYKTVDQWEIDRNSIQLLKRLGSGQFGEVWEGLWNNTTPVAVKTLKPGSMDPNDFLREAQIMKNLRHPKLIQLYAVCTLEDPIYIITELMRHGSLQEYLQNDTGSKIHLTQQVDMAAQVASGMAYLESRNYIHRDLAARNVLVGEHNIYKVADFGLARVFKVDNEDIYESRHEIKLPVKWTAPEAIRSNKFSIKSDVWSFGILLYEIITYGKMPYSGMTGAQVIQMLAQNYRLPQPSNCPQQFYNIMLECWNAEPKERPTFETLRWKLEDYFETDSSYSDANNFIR

[10] = molecular target: HCK (Homo sapiens (Human), UniProt P08631); assay: Kinase screening assay (IC50); conditions: read-out: Target inhibition (IC50) HCK; 10 μM ATP
Sequence of HCK (P08631 whole entry): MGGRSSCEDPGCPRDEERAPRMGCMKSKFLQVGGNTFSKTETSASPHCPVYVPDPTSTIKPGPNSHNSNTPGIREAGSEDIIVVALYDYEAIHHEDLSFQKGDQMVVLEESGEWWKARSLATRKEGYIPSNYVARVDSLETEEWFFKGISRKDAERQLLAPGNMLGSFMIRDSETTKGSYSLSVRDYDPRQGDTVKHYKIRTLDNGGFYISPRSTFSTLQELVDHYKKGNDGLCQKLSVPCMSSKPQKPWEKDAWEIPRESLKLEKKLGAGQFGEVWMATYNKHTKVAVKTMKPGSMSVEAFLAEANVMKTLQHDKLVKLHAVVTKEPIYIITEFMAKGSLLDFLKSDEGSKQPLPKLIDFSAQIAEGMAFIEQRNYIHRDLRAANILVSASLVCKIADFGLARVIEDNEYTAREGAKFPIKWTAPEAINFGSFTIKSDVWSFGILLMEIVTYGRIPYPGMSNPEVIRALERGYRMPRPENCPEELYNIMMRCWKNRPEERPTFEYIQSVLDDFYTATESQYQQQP

[11] = molecular target: LCK (Homo sapiens (Human), UniProt P06239); assay: Kinase screening assay (IC50)
Sequence of LCK (P06239 whole entry): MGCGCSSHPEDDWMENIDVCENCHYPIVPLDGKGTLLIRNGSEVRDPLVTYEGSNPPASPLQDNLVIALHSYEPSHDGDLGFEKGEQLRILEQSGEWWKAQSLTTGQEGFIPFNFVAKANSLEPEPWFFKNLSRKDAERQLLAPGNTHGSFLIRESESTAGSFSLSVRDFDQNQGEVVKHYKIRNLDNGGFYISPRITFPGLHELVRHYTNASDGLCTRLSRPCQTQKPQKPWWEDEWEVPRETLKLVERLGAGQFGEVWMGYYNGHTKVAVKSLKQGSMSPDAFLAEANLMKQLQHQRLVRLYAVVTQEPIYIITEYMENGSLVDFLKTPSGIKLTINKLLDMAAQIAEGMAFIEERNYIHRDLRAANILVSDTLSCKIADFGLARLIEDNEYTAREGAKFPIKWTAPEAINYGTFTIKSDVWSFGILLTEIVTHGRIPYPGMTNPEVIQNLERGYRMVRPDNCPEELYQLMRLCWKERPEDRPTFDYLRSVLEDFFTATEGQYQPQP

[12] = molecular target: LYN (Homo sapiens (Human), UniProt P07948); assay: Kinase screening assay (IC50); conditions: read-out: Target inhibition (IC50) LYN; 10 μM ATP
[13] = molecular target: ABL (Homo sapiens (Human), UniProt P00519); assay: Kinase screening assay (IC50); assay type: biochemical; conditions: 10 μM ATP; read-out: Target inhibition (IC50) ABL
[14] = molecular target: FGR (Homo sapiens (Human), UniProt P09769); assay: Kinase screening assay (IC50)
Sequence of FGR (P09769 whole entry): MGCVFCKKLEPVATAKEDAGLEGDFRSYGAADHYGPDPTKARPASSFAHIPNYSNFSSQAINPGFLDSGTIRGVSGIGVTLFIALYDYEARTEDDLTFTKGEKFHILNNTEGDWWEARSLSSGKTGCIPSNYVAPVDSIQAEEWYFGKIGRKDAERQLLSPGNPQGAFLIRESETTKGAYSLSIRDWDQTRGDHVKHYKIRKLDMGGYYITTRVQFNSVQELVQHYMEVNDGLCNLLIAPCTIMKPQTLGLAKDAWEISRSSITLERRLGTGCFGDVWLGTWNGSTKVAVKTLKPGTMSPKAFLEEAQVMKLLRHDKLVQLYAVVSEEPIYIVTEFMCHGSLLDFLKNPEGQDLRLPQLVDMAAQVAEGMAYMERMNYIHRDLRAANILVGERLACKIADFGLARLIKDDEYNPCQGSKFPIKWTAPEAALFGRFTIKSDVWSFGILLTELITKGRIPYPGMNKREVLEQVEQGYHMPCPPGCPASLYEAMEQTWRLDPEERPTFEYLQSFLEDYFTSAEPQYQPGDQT

[15] = read-out: Target inhibition (IC50) LCK, 10 μM ATP

Row | EC50 [1] | EC50 [2] | SMILES | IC50 [4] | IC50 [5] | IC50 [6] | other results
1 | > 10000 nM | > 10000 nM | COc1ccc(-c2nn(CCN3CCC(N(C)C)CC3)c3ncnc(N)c23)cc1NC(=O)OC(C)(C)C [Compound 559, tert-butyl N-[5-[4-amino-1-[2-[4-(dimethylamino)-1-piperidyl]ethyl]pyrazolo[3,4-d]pyrimidin-3-yl]-2-methoxy-phenyl]carbamate] |  |  |  | 
2 | > 10000 nM |  | CN(C)CC1CCN(CCn2nc(-c3ccoc3)c3c(N)ncnc32)CC1 [Compound 226, 1-[2-[4-(dimethylaminomethyl)-1-piperidyl]ethyl]-3-(3-furyl)pyrazolo[3,4-d]pyrimidin-4-amine] |  |  |  | 
3 | > 10000 nM |  | CN(C)CC1CCN(CCn2nc(C#Cc3ccccc3)c3c(N)ncnc32)CC1 [Compound 230, 1-[2-[4-(dimethylaminomethyl)-1-piperidyl]ethyl]-3-(2-phenylethynyl)pyrazolo[3,4-d]pyrimidin-4-amine] |  |  |  | 
4 | > 10000 nM | > 10000 nM | CN(C)C1CCN(CCn2nc(-c3cccc(NC(=O)OC(C)(C)C)c3)c3c(N)ncnc32)CC1 [Compound 542, tert-butyl N-[3-[4-amino-1-[2-[4-(dimethylamino)-1-piperidyl]ethyl]pyrazolo[3,4-d]pyrimidin-3-yl]phenyl]carbamate] |  |  |  | EC50 [3]: > 10000 nM
5 | > 10000 nM |  | CN(C)CC1CCN(CCn2nc(-c3ccc4ncccc4c3)c3c(N)ncnc32)CC1 [Compound 223, 1-[2-[4-(dimethylaminomethyl)-1-piperidyl]ethyl]-3-(6-quinolyl)pyrazolo[3,4-d]pyrimidin-4-amine] |  |  |  | 
6 |  |  | Cc1ccc(-c2nn(CCN3CCC(CN(C)C)CC3)c3ncnc(N)c23)cc1 [Compound 112, 1-[2-[4-(dimethylaminomethyl)-1-piperidyl]ethyl]-3-(p-tolyl)pyrazolo[3,4-d]pyrimidin-4-amine] | > 1000 nM | > 1000 nM | > 1000 nM | IC50 [7]: > 1000 nM; IC50 [8]: > 1000 nM; IC50 [9]: > 1000 nM; IC50 [10]: > 1000 nM; IC50 [11, 15]: > 1000 nM; IC50 [12]: > 1000 nM
7 |  |  | COc1cc(-c2nn(CCN3CCC(N(C)C)CC3)c3ncnc(N)c23)ccc1NC(=O)CC(C)(C)C [Compound 526, N-[4-[4-amino-1-[2-[4-(dimethylamino)-1-piperidyl]ethyl]pyrazolo[3,4-d]pyrimidin-3-yl]-2-methoxy-phenyl]-3,3-demethyl-butanamide] | > 1000 nM | > 1000 nM | > 1000 nM | IC50 [13]: > 1000 nM; IC50 [7]: > 1000 nM; IC50 [14]: 10 to 100 nM; IC50 [9]: > 1000 nM; IC50 [11]: 10 to 100 nM
8 | > 10000 nM |  | CN(C)CC1CCN(CCn2nc(I)c3c(N)ncnc32)CC1 [Compound 232, 1-[2-[4 (dimethylaminomethyl)-1-piperidyl]ethyl]-3-iodo-pyrazolo[3,4-d]pyrimidin-4-amine] |  |  |  | 
9 | > 10000 nM |  | COc1ccc(-c2nn(CCN3CCC(CN(C)C)CC3)c3ncnc(N)c23)cc1OC [Compound 224, 3-(3,4-dimethoxyphenyl)-1-[2-[4-(dimethylaminomethyl)-1-piperidyl]ethyl]pyrazolo[3,4-d]pyrimidin-4-amine] |  |  |  | 
10 | > 10000 nM |  | CN(C)CC1CCN(CCn2nc(-c3cccc(O)c3)c3c(N)ncnc32)CC1 [Compound 225, 3-[4-amino-1-[2-[4-(dimethylaminomethyl)-1-piperidyl]ethyl]pyrazolo[3,4-d]pyrimidin-3-yl]phenol] |  |  |  | 
11 | 1000 to 10000 nM | > 10000 nM | COc1cc(-c2nn(CCN3CCC(N(C)C)CC3)c3ncnc(N)c23)ccc1NC(=O)CCc1ccccc1 [Compound 531, N-[4-[4-amino-1-[2-[4-(dimethylamino)-1-piperidyl]ethyl]pyrazolo[3,4-d]pyrimidin-3-yl]-2-methoxy-phenyl]-3-phenyl-propanamide] |  |  |  | EC50 [3]: > 10000 nM
12 | > 10000 nM | > 10000 nM | COc1cc(-c2nn(CCN3CCC(N(C)C)CC3)c3ncnc(N)c23)ccc1NC(=O)Cc1ccccc1 [Compound 530, N-[4-[4-amino-1-[2-[4-(dimethylamino)-1-piperidyl]ethyl]pyrazolo[3,4-d]pyrimidin-3-yl]-2-methoxy-phenyl]-2-phenyl-acetamide] |  |  |  | EC50 [3]: > 10000 nM
13 | > 10000 nM | > 10000 nM | CN(C)C1CCN(CCn2nc(-c3ccc(NC(=O)OC(C)(C)C)nc3)c3c(N)ncnc32)CC1 [Compound 549, tert-butyl N-[5-[4-amino-1-[2-[4-(dimethylamino)-1-piperidyl]ethyl]pyrazolo[3,4-d]pyrimidin-3-yl]-2-pyridyl]carbamate] |  |  |  | 
14 |  |  | CN(C)CC1CCN(CCn2nc(-c3cnc4[nH]ccc4c3)c3c(N)ncnc32)CC1 [Compound 221, 1-[2-[4-(dimethylaminomethyl)-1-piperidyl]ethyl]-3-(1H-pyrrolo[2,3-b]pyridin-5-yl)pyrazolo[3,4-d]pyrimidin-4-amine] | > 1000 nM | > 1000 nM | > 1000 nM | 
15 |  | 1000 to 10000 nM | COc1cc(-c2nn(CCN3CCC(OC)CC3)c3ncnc(N)c23)ccc1NC(=O)OC(C)(C)C [Compound 593, tert-butyl N-[4-[4-amino-1-[2-(4-methoxy-1-piperidyl)ethyl]pyrazolo[3,4-d]pyrimidin-3-yl]-2-methoxy-phenyl]carbamate] |  |  |  | 
16 |  | > 10000 nM | COc1cc(-c2ccn(CCN3CCC(N(C)C)CC3)n2)ccc1NC(=O)OC(C)(C)C [Compound 597, tert-butyl N-[4-[1-[2-[4-(dimethylamino)-1-piperidyl]ethyl]pyrazol-3-yl]-2-methoxy-phenyl]carbamate] |  |  |  | 
17 |  | 1000 to 10000 nM | COc1cc(-c2nn(CCN3CCCC(N(C)C)C3)c3ncnc(N)c23)ccc1NC(=O)OC(C)(C)C (stereo not shown) [Compound 5-103, tert-butyl N-[4-[4-amino-1-[2-[3-(dimethylamino)-1-piperidyl]ethyl]pyrazolo[3,4-d]pyrimidin-3-yl]-2-methoxy-phenyl]carbamate] |  |  |  | 
18 |  |  | Cc1ccc(-c2nn(CCN3CCC(CCN(C)C)CC3)c3ncnc(N)c23)cc1 [Compound 113, 1-[2-[4-(2-dimethylaminoethyl)-1-piperidyl]ethyl]-3-(p-tolyl)pyrazolo[3,4-d]pyrimidin-4-amine] | > 1000 nM | > 1000 nM | > 1000 nM | IC50 [7]: > 1000 nM; IC50 [14]: 100 to 1000 nM; IC50 [9]: > 1000 nM; IC50 [10]: > 1000 nM; IC50 [11, 15]: > 1000 nM; IC50 [12]: > 1000 nM
19 |  |  | CN(C)C1CCN(CCn2nc(-c3cnc4[nH]ccc4c3)c3c(N)ncnc32)CC1 [Compound 402, 1-[2-[4-(dimethylamino)-1-piperidyl]ethyl]-3-(1H-pyrrolo[2,3-b]pyridin-5-yl)pyrazolo[3,4-d]pyrimidin-4-amine] | > 1000 nM | > 1000 nM | > 1000 nM | IC50 [10]: > 1000 nM
20 |  |  | Cc1ccc(-c2nn(CCN3CCN(CCN(C)C)CC3)c3ncnc(N)c23)cc1 [Compound 105, 1-[2-[4-(2-dimethylaminoethyl)piperazin-1-yl]ethyl]-3-(p-tolyl)pyrazolo[3,4-d]pyrimidin-4-amine] | > 1000 nM | > 1000 nM | > 1000 nM | IC50 [13]: > 1000 nM; IC50 [7]: > 1000 nM; IC50 [8]: > 1000 nM; IC50 [9]: > 1000 nM; IC50 [10]: > 1000 nM; IC50 [11, 15]: > 1000 nM
21 |  | > 10000 nM | CN(C)C1CCN(CCn2nc(-c3ccc(CC#N)cc3)c3c(N)ncnc32)CC1 [Compound 5-100, 2-[4-[4-amino-1-[2-[4-(dimethylamino)-1-piperidyl]ethyl]pyrazolo[3,4-d]pyrimidin-3-yl]phenyl]acetonitrile] |  |  |  | 
22 |  |  | Cc1ccc(-c2nn(CCN3CCN(C)CC3)c3ncnc(N)c23)cc1 [Compound 103] | > 1000 nM | > 1000 nM | > 1000 nM | IC50 [13]: > 1000 nM; IC50 [7]: > 1000 nM; IC50 [8]: > 1000 nM; IC50 [9]: > 1000 nM; IC50 [10]: > 1000 nM; IC50 [11, 15]: > 1000 nM; IC50 [12]: > 1000 nM
23 |  |  | COc1cc(-c2nn(CCN3CCC(N(C)C)CC3)c3ncnc(N)c23)ccc1NC(=O)NC(C)(C)C [Compound 540, 1-[4-[4-amino-1-[2-[4-(dimethylamino)-1-piperidyl]ethyl]pyrazolo[3,4-d]pyrimidin-3-yl]-2-methoxy-phenyl]-3-tert-butyl-urea] | > 1000 nM | > 1000 nM | > 1000 nM | IC50 [7]: > 1000 nM; IC50 [14]: 10 to 100 nM; IC50 [9]: > 1000 nM; IC50 [11]: 10 to 100 nM
